Laboratory results as given in patent US20260184710A1, “CASITAS B-LINEAGE LYMPHOMA PROTOONCOGENE B (CBL-B) DEGRADING COMPOUNDS AND ASSOCIATED METHODS OF USE” (Arvinas Operations, Inc., priority 2022, published 2026).

Legend:
Cbl-b [1] = target: T1, Cbl-b (Homo sapiens, UniProt Q13191); experiment: Cbl-b Degradation Method B (Nano-Glo HiBiT lytic detection); assay type: cell-based; conditions: Cbl-b-HiBit KI Jurkat Cells, incubated at least 6-24 hours; for DC50: half maximal degradation, read-out: Cbl-b Degredation Method B IC50; for Cbl-b Degredation Method B Dmax (%) / Dmax: maximum degradation observed; for Dmax: read-out: Cbl-b Degredation Method B Dmax (%)
T1 construct: Cbl-b-HiBit KI Jurkat Cells were purchased from Promega; host or cells: Cbl-b-HiBiT knock-in Jurkat cells
Summary of the method: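 An 11-point, 3-fold compound dilution was applied for 6-24 hours to Jurkat cells carrying HiBiT-tagged endogenous Cbl-b. Lytic HiBiT luminescence quantified residual protein. Outputs are DC50 and Dmax relative to DMSO control.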

Cbl-b [2] = target: T1, Cbl-b; experiment: Cbl-b Degradation Method A (FACS, anti-Cbl-b antibody staining); assay type: cell-based; conditions: Cbl-b-HiBit KI Jurkat Cells, incubated at least 20 hours; for DC50: half maximal degradation, read-out: Cbl-b Degredation Method A IC50; for Dmax: Jurkat, maximum degradation observed, read-out: Cbl-b Degredation Method A Dmax (%)
Summary of the method: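 Readout is flow cytometry of fixed, permeabilized cells immunostained for Cbl-b (primary 1:200, AF488 secondary). Cells were Cbl-b-HiBit knock-in Jurkat, exposed to compound ≥20 h at 37 °C; half-maximal degradation concentration (DC50) and maximal degradation (Dmax) calculated relative to control.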

T1 sequence (Q13191 whole entry): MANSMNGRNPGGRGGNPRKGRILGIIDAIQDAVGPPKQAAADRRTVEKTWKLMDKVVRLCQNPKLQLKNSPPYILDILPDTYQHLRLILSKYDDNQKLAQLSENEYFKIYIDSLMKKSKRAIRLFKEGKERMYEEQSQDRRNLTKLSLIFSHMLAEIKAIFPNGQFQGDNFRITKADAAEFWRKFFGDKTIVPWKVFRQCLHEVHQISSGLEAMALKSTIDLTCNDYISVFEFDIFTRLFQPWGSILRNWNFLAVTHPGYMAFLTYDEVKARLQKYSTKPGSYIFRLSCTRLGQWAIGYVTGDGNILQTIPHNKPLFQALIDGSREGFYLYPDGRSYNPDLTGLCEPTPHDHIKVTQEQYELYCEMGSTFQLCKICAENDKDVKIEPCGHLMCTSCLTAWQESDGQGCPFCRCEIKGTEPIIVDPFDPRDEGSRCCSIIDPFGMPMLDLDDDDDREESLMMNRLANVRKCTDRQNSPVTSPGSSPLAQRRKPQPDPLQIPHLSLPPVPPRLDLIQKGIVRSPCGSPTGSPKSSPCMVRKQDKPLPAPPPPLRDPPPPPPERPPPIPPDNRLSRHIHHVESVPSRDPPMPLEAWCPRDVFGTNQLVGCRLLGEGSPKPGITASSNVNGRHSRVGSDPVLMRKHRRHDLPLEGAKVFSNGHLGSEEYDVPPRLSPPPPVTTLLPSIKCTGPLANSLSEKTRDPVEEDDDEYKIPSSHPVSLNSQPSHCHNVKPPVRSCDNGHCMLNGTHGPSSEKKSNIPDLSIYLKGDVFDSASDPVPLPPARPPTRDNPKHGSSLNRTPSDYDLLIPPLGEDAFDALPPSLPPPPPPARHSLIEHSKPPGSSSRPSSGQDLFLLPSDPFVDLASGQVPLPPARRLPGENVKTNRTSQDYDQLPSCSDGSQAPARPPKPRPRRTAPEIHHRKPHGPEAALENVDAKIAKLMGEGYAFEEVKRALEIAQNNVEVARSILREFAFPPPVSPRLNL

Row | SMILES | DC50 (Cbl-b [1]) [nM] | Cbl-b Degredation Method B Dmax (%) (Cbl-b [1]) | DC50 (Cbl-b [2]) [nM] | Dmax (Cbl-b [2]) [%] | Dmax (Cbl-b [1]) [%]
1 | CC(C)n1c(=O)n(C2CCC(=O)NC2=O)c2cccc(N3CCC(O[C@H]4CC[C@H](CN5CCC6(CCN(Cc7cc8c(c(C(F)(F)F)c7)CN(c7cccc([C@]9(Cc%10nncn%10C)C[C@@H](C#N)C9)c7)C8=O)CC6)CC5)CC4)CC3)c21 (stereo partly drawn) [Example 317, (1r,3r)-3-[(4-methyl-4H-1,2,4-triazol-3-yl)methyl]-3-(3-{1-oxo-6-[(9-{[(1r,4r)-4-({1-[1-(2,6-dioxopiperidin-3-yl)-2-oxo-3-(propan-2-yl)-2,3-dihydro-1H-1,3-benzodiazol-4-yl]piperidin-4-yl}oxy)cyclohexyl]methyl}-3,9-diazaspiro[5.5]undecan-3-yl)methyl]-4-(trifluoromethyl)-2,3-dihydro-1H-isoindol-2-yl}phenyl)cyclobutane-1-carbonitrile] | < 5 | C (C ≤ 35) | 50 to 500 | 35 to 70 | –
2 | CC1c2nc(N3CCC(O[C@H]4CC[C@H](CN5C[C@H]6C[C@@H]5CN6c5cc6c(c(C(F)(F)F)c5)CN(c5cccc([C@]7(Cc8nncn8C)C[C@@H](C#N)C7)c5)C6=O)CC4)CC3)ccc2C(=O)N1C1CCC(=O)NC1=O (stereo partly drawn) [Example 181, (1r,3r)-3-[(4-methyl-4H-1,2,4-triazol-3-yl)methyl]-3-(3-{1-oxo-6-[(1R,4R)-5-{[(1r,4r)-4-({1-[6-(2,6-dioxopiperidin-3-yl)-7-methyl-5-oxo-5H,6H,7H-pyrrolo[3,4-b]pyridin-2-yl]piperidin-4-yl}oxy)cyclohexyl]methyl}-2,5-diazabicyclo[2.2.1]heptan-2-yl]-4-(trifluoromethyl)-2,3-dihydro-1H-isoindol-2-yl}phenyl)cyclobutane-1-carbonitrile] | < 5 | – | < 5 | 35 to 70 | 35 to 70
3 | COC1CC(Cc2nncn2C)(c2cccc(N3Cc4c(cc(CN5CCN(C[C@H]6CC[C@H](OC7CCN(c8ccc9c(n8)C(C)N(C8CCC(=O)NC8=O)C9=O)CC7)CC6)CC5(C)C)cc4C(F)(F)F)C3=O)c2)C1 (stereo partly drawn) [Example 294, 3-[7-methyl-5-oxo-2-(4-{[(1r,4r)-4-[(4-{[2-(3-{3-methoxy-1-[(4-methyl-4H-1,2,4-triazol-3-yl)methyl]cyclobutyl}phenyl)-3-oxo-7-(trifluoromethyl)-2,3-dihydro-1H-isoindol-5-yl]methyl}-3,3-dimethylpiperazin-1-yl)methyl]cyclohexyl]oxy}piperidin-1-yl)-5H,6H,7H-pyrrolo[3,4-b]pyridin-6-yl]piperidine-2,6-dione] | < 5 | C (C ≤ 35) | 50 to 500 | > 70 | –
4 | CC1c2nc(N3CCC(O[C@H]4CC[C@H](CN5CCN(Cc6cc7c(c(C(F)(F)F)c6)CN(c6cccc(C8(Cc9nncn9C)CC8)c6)C7=O)CC5)CC4)CC3)ccc2C(=O)N1C1CCC(=O)NC1=O (mixture of isomers) [Example 234, rac-3-[7-methyl-5-oxo-2-(4-{[(1r,4r)-4-[(4-{[2-(3-{1-[(4-methyl-4H-1,2,4-triazol-3-yl)methyl]cyclopropyl}phenyl)-3-oxo-7-(trifluoromethyl)-2,3-dihydro-1H-isoindol-5-yl]methyl}piperazin-1-yl)methyl]cyclohexyl]oxy}piperidin-1-yl)-5H,6H,7H-pyrrolo[3,4-b]pyridin-6-yl]piperidine-2,6-dione] | < 5 | – | 5 to 50 | 35 to 70 | 35 to 70
5 | Cn1cnnc1C[C@]1(c2cccc(N3Cc4c(cc(CN5CCN(C[C@H]6CC[C@H](OC7CCN(c8cccc9c8n(C)c(=O)n9C8CCC(=O)NC8=O)CC7)CC6)CC5(C)C)cc4C(F)(F)F)C3=O)c2)C[C@H](C#N)C1 (stereo partly drawn) [Example 301, (1r,3r)-3-(3-{6-[(2,2-dimethyl-4-{[(1r,4r)-4-({1-[1-(2,6-dioxopiperidin-3-yl)-3-methyl-2-oxo-2,3-dihydro-1H-1,3-benzodiazol-4-yl]piperidin-4-yl}oxy)cyclohexyl]methyl}piperazin-1-yl)methyl]-1-oxo-4-(trifluoromethyl)-2,3-dihydro-1H-isoindol-2-yl}phenyl)-3-[(4-methyl-4H-1,2,4-triazol-3-yl)methyl]cyclobutane-1-carbonitrile] | < 5 | C (C ≤ 35) | 50 to 500 | > 70 | –
6 | Cn1cnnc1CC1(c2cccc(N3Cc4c(cc(N5CC6(CC(CCOc7ccc8c(c7)C(=O)N(C7CCC(=O)NC7=O)C8=O)C6)C5)cc4C(F)(F)F)C3=O)c2)COC1 (stereo not drawn) [Example 20, 2-(2,6-dioxo-3-piperidyl)-5-[2-[2-[2-[3-[3-[(4-methyl-1,2,4-triazol-3-yl)methyl]oxetan-3-yl]phenyl]-3-oxo-7-(trifluoromethyl)isoindolin-5-yl]-2-azaspiro[3.3]heptan-6-yl]ethoxy]isoindoline-1,3-dione] | > 500 | – | > 500 | – | –

Next, values leading:

Row | DC50 (Cbl-b [1]) [nM] | Cbl-b Degredation Method B Dmax (%) (Cbl-b [1]) | DC50 (Cbl-b [2]) [nM] | Dmax (Cbl-b [2]) [%] | Dmax (Cbl-b [1]) [%] | SMILES
7 | > 500 | – | 50 to 500 | > 70 | – | Cn1cnnc1CC1(c2cccc(N3Cc4c(cc(CN5CCC(N6CC7(CN(c8ccc9c(c8)C(=O)N(C8CCC(=O)NC8=O)C9=O)C7)C6)CC5)cc4C(F)(F)F)C3=O)c2)COC1 (stereo not drawn) [Example 106, 2-(2,6-dioxopiperidin-3-yl)-5-[6-(1-{[2-(3-{3-[(4-methyl-4H-1,2,4-triazol-3-yl)methyl]oxetan-3-yl}phenyl)-3-oxo-7-(trifluoromethyl)-2,3-dihydro-1H-isoindol-5-yl]methyl}piperidin-4-yl)-2,6-diazaspiro[3.3]heptan-2-yl]-2,3-dihydro-1H-isoindole-1,3-dione]
8 | > 500 | – | > 500 | 35 to 70 | – | Cn1cnnc1CC1(c2cccc(N3Cc4c(cc(CN5CCC(N6CCN(CC7CCN(c8ccc9c(c8)C(=O)N(C8CCC(=O)NC8=O)C9=O)CC7)CC6)CC5)cc4C(F)(F)F)C3=O)c2)COC1 (stereo not drawn) [Example 103, 2-(2,6-dioxopiperidin-3-yl)-5-(4-{[4-(1-{[2-(3-{3-[(4-methyl-4H-1,2,4-triazol-3-yl)methyl]oxetan-3-yl}phenyl)-3-oxo-7-(trifluoromethyl)-2,3-dihydro-1H-isoindol-5-yl]methyl}piperidin-4-yl)piperazin-1-yl]methyl}piperidin-1-yl)-2,3-dihydro-1H-isoindole-1,3-dione]
9 | < 5 | – | 5 to 50 | > 70 | > 70 | COc1c(N2CCC(O[C@H]3CC[C@H](CN4CCC5(CC4)CN(c4cc6c(c(C(F)(F)F)c4)CN(c4cccc(C7(Cc8nncn8C)COC7)c4)C6=O)C5)CC3)CC2)ccc2c1CN(C1CCC(=O)NC1=O)C2=O (stereo partly drawn) [Example 169, 3-[4-methoxy-1-oxo-5-(4-{[(1r,4r)-4-({2-[2-(3-{3-[(4-methyl-4H-1,2,4-triazol-3-yl)methyl]oxetan-3-yl}phenyl)-3-oxo-7-(trifluoromethyl)-2,3-dihydro-1H-isoindol-5-yl]-2,7-diazaspiro[3.5]nonan-7-yl}methyl)cyclohexyl]oxy}piperidin-1-yl)-2,3-dihydro-1H-isoindol-2-yl]piperidine-2,6-dione]
10 | < 5 | – | 5 to 50 | < 35 | < 35 | Cn1cnnc1CC1(c2cccc(N3Cc4c(cc(N5CC6(CCN(CC7CCN(c8cccc9c8CN(C8CCC(=O)NC8=O)C9=O)CC7)CC6)C5)cc4C(F)(F)F)C3=O)c2)COC1 (stereo not drawn) [Example 119, 3-{4-[4-({2-[2-(3-{3-[(4-methyl-4H-1,2,4-triazol-3-yl)methyl]oxetan-3-yl}phenyl)-3-oxo-7-(trifluoromethyl)-2,3-dihydro-1H-isoindol-5-yl]-2,7-diazaspiro[3.5]nonan-7-yl}methyl)piperidin-1-yl]-1-oxo-2,3-dihydro-1H-isoindol-2-yl}piperidine-2,6-dione]
11 | > 500 | – | > 500 | – | – | Cn1cnnc1CC1(c2cccc(N3Cc4c(cc(N5CCC(CC6CCN(c7cc8c(cc7F)C(=O)N(C7CCC(=O)NC7=O)C8=O)CC6)CC5)cc4C(F)(F)F)C3=O)c2)COC1 (stereo not drawn) [Example 118, 2-(2,6-dioxopiperidin-3-yl)-5-fluoro-6-[4-({1-[2-(3-{3-[(4-methyl-4H-1,2,4-triazol-3-yl)methyl]oxetan-3-yl}phenyl)-3-oxo-7-(trifluoromethyl)-2,3-dihydro-1H-isoindol-5-yl]piperidin-4-yl}methyl)piperidin-1-yl]-2,3-dihydro-1H-isoindole-1,3-dione]
12 | < 5 | – | < 5 | > 70 | 35 to 70 | CC1CN(Cc2cc3c(c(C(F)(F)F)c2)CN(c2cccc(C4(Cc5nncn5C)COC4)c2)C3=O)CCN1C[C@H]1CC[C@H](OC2CCN(c3ccc4c(c3F)CN(C3CCC(=O)NC3=O)C4=O)CC2)CC1 (stereo partly drawn) [Example 196, 3-[4-fluoro-1-oxo-5-(4-{[(1r,4r)-4-[(2-methyl-4-{[2-(3-{3-[(4-methyl-4H-1,2,4-triazol-3-yl)methyl]oxetan-3-yl}phenyl)-3-oxo-7-(trifluoromethyl)-2,3-dihydro-1H-isoindol-5-yl]methyl}piperazin-1-yl)methyl]cyclohexyl]oxy}piperidin-1-yl)-2,3-dihydro-1H-isoindol-2-yl]piperidine-2,6-dione]
